The record followed here is US11639353B2, “Cyclobutanes- and azetidine-containing mono and spirocyclic compounds as αV integrin inhibitors” (BRISTOL-MYERS SQUIBB COMPANY, priority 2016, dated 2023).

Common to all, as to details: alternatively SPA-based assay
Experiment [1] addresses human αVβ8 (Homo sapiens, UniProt P06756+P26012). Kind of experiment: human αVβ8 HTRF binding assay. Here is the method: (§1) All binding assays used the HTRF (homogeneous time resolved fluorescence) technology from Cisbio International, therefore all assays are described as HTRF binding assays. The assay results for the Examples are listed above together with the characterization data. The HTRF binding assays are established for the following integrins: human αVβ6, human αVβ1, human αVβ3, human αVβ5, and human αVβ8. All assays used the following assay buffer: 20 mM Tris, pH 7.4, 1 mM MgCl2, 1 mM MnCl2, 0.01% Tween 20, and 0.01% BSA. Alternatively, a SPA-based assay was used for evaluation of receptor binding.
(§2) The SPA-based assay was carried out according to the protocol and procedures similar to the ones described in the following reference with appropriate modifications to agents and ligands which are readily understood by one skilled in the art: Pachter J A, Zhang R, Mayer-Ezell R., “Scintillation proximity assay to measure binding of soluble fibronectin to antibody-captured αVβ1 integrin” Anal Biochem. 1995 Sep. 1; 230(1):101-7.

In experiment [2] the target is T1, human αVβ6 (Homo sapiens, UniProt P06756+P18564).
T1 construct: purchased R & D systems 3817-AV
T1 sequence (P06756 31-992 limits assumed): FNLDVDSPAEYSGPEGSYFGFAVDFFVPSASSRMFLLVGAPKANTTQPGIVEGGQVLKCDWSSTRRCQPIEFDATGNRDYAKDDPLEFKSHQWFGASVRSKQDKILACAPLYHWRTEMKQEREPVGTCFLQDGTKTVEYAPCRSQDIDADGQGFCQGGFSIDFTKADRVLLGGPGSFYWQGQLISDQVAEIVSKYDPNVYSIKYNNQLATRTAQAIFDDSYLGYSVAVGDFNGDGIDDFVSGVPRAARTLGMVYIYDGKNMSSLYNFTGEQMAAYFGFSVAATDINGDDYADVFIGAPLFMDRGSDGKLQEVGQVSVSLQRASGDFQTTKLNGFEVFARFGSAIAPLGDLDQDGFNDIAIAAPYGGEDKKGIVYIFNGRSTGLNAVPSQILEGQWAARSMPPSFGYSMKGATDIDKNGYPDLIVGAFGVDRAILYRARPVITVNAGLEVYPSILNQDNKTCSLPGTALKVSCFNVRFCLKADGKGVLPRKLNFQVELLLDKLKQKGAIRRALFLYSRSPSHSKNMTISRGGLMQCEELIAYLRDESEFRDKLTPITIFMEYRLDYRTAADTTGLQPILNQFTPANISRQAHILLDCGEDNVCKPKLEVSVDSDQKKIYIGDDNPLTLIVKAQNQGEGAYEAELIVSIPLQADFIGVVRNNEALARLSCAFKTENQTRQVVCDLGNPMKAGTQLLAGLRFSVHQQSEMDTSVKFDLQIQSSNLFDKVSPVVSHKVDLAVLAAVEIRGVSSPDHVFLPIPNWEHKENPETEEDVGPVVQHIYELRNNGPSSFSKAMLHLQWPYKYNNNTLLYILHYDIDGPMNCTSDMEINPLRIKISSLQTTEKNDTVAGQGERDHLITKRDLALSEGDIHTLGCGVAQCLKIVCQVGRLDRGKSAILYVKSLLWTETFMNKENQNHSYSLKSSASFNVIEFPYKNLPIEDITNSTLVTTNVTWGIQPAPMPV
T1 sequence (P18564 22-707 limits assumed): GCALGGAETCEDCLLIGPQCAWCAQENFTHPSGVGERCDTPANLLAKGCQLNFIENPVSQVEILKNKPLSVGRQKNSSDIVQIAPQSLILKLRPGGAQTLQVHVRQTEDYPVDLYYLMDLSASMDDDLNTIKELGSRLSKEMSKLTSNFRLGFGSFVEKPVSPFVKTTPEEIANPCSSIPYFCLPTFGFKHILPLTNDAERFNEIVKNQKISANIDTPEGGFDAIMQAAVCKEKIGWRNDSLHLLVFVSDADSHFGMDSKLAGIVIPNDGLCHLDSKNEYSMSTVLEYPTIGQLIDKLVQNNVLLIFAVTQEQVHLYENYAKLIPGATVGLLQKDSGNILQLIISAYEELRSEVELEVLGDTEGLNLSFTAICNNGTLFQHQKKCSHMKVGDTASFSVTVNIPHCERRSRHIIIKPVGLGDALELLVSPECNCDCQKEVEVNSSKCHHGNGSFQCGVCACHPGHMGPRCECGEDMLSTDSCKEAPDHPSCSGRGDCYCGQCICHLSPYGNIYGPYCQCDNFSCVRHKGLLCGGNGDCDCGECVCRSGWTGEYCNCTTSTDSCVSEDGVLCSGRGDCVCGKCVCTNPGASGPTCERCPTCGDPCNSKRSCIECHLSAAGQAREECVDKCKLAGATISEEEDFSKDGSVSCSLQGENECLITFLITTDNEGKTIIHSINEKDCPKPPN
Nature of the experiment: human αVβ6 HTRF binding assay. In short, it runs like this: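 Biotinylated recombinant human αVβ6 (1.25 nM final) incubated with FITC-fibronectin (5 nM final) 1 h at RT, then streptavidin-terbium (0.625 nM final) added and left overnight at RT in the dark before HTRF reading. Buffer: 20 mM Tris pH 7.4, 1 mM MgCl2, 1 mM MnCl2, 0.01% Tween 20, 0.01% BSA.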
On the technique in general: TR-FRET usually uses a lanthanide donor and a delayed reading to cut background.

The target in experiment [3] is human αVβ5 (Homo sapiens, UniProt P06756+P18084). Kind of experiment: human αVβ5 HTRF binding assay. The protocol:
as §1, §2

Experiment [4] has as its target human αVβ3 (Homo sapiens, UniProt P05106+P06756). Kind of experiment: human αVβ3 HTRF binding assay. The protocol:
as §1, §2

The target of experiment [5] is human αVβ1 (Homo sapiens, UniProt P05556+P06756). Nature of the experiment: human αVβ1 HTRF binding assay. The protocol: as §1, §2
Sequence of human αVβ1 (P06756 31-992 limits assumed): as the sequence (P06756 31-992 limits assumed) above
Sequence of human αVβ1 (P05556 21-728 limits assumed): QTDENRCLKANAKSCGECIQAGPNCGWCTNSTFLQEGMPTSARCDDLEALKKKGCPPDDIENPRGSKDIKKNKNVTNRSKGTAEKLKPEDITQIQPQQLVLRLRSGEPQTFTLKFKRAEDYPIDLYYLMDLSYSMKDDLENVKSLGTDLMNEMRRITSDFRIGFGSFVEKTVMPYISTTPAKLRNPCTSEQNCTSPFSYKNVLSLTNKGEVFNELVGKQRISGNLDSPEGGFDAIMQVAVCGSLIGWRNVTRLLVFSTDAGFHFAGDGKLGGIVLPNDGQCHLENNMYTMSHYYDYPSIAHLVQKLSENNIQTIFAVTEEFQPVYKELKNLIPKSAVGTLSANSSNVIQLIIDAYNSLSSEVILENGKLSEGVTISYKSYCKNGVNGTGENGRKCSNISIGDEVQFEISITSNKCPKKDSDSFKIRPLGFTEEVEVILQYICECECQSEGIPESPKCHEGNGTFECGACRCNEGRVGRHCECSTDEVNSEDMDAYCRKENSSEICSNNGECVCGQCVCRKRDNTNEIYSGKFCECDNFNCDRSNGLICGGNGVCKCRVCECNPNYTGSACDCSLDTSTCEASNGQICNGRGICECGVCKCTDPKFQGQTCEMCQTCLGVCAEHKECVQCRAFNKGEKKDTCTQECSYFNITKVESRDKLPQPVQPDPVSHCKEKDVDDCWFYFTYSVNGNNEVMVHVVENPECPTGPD

Sequence of human αVβ3 (P06756 31-992 limits assumed): as the sequence (P06756 31-992 limits assumed) above
Sequence of human αVβ3 (P05106 27-718 limits assumed): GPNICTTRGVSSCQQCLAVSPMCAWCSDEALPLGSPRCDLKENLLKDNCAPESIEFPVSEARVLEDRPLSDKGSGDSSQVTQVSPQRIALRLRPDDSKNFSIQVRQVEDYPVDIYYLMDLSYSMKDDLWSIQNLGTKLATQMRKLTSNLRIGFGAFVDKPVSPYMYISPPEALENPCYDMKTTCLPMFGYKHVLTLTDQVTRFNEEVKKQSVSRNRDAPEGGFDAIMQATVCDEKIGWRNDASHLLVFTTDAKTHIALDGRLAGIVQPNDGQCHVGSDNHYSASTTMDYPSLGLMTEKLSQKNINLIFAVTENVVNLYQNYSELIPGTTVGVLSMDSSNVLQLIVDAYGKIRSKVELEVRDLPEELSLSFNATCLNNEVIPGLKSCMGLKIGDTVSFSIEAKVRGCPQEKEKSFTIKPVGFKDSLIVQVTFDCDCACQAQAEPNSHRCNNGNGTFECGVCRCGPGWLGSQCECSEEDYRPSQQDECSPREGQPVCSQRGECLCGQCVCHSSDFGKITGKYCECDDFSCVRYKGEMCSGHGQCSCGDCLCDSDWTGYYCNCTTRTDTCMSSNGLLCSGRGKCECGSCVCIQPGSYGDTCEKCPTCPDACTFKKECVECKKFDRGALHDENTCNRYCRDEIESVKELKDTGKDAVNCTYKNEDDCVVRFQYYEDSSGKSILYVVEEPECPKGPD
Sequence of human αVβ8 (P06756 31-992 limits assumed): as the sequence (P06756 31-992 limits assumed) above
Sequence of human αVβ8 (P26012 43-684 limits assumed): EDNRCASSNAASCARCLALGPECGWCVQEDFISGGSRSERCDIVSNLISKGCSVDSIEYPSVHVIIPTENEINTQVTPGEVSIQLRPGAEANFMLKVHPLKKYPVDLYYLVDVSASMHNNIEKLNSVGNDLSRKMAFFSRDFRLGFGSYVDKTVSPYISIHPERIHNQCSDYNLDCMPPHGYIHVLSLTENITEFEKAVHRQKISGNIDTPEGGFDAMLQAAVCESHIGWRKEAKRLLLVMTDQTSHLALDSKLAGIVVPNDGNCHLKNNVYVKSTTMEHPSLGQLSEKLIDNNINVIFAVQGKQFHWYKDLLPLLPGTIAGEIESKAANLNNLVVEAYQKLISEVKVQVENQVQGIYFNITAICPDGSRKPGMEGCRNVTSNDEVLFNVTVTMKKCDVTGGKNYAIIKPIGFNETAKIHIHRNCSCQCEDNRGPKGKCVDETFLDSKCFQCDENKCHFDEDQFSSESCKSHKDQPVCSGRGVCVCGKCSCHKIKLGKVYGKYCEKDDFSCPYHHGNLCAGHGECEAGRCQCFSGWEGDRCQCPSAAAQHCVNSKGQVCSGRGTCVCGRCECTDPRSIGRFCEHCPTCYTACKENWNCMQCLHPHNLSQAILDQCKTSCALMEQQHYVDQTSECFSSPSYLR
Sequence of human αVβ5 (P06756 31-992 limits assumed): as the sequence (P06756 31-992 limits assumed) above
Sequence of human αVβ5 (P18084 24-719 limits assumed): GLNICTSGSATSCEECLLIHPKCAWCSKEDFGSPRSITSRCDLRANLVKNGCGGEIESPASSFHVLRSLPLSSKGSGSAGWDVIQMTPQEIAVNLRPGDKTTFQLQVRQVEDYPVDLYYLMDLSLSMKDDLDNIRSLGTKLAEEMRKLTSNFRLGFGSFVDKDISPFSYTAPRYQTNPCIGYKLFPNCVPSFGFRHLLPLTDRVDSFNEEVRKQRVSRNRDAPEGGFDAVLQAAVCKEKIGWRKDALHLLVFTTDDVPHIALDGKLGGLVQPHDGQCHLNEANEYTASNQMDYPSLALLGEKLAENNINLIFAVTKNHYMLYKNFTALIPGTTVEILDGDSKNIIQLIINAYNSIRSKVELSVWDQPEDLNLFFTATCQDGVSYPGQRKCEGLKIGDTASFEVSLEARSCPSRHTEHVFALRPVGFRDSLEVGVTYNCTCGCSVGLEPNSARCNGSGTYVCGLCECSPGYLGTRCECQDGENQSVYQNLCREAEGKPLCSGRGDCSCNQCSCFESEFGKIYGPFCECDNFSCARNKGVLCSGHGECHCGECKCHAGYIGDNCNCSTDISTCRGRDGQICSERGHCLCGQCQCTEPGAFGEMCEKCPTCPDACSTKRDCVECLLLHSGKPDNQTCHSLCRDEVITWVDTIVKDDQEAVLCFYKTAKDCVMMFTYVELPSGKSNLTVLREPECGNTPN

Broadly, the IC50 is the midpoint of a concentration-inhibition curve. A lower IC50 goes with higher potency. In the case of `COc1ncc([C@H](CC(=O)O)NC(=O)[C@H]2C[C@@H](CCc3ccc4c(n3)NCCC4)C2)cn1` [Example 83], the IC50 in experiment [1] was 1400 nM; in experiment [2] it was 2 nM; in experiment [3], 150 nM; in experiment [4] it was 3.2 nM; in experiment [5] it was 4000 nM.
For `O=C(O)C[C@H](NC(=O)[C@H]1C[C@H](CCc2ccc3c(n2)NCCC3)C1)c1cnc2ccccc2c1` [Example 84], in that order: 84 nM, 0.62 nM, 41 nM, 4.7 nM and 60 nM.
The matching figures for `Cc1ncc([C@H](CC(=O)O)NC(=O)[C@H]2C[C@@H](CCc3ccc4c(n3)NCCC4)C2)cn1` [Example 87]: 940 nM, 1.1 nM, 8.8 nM, 3.8 nM and 2200 nM.
Consider `O=C(O)C[C@H](NC(=O)[C@H]1C[C@H](CCc2ccc3c(n2)NCCC3)C1)c1ccc2c(c1)OCC2` [Example 88], for which the IC50 in experiment [1] amounted to 190 nM; in experiment [2], 0.87 nM; in experiment [3] it was 1 nM; in experiment [4], 2.7 nM; in experiment [5], 150 nM.
Turning to `O=C(O)C[C@H](NC(=O)N1CC(CCc2ccc3c(n2)NCCC3)C1)c1cnc2ccccc2c1` [Example 96], the IC50 in experiment [1] was determined as 120 nM; in experiment [2], 1.9 nM; in experiment [3] it was 1.3 nM; in experiment [4] it was 2.3 nM; in experiment [5], 247 nM.
Turning to `O=C(O)C[C@H](NC(=O)N1CC(CCc2ccc3c(n2)NCCC3)C1)c1ccc2c(c1)OCC2` [Example 97], the IC50 was 280 nM in experiment [1]; 0.64 nM in experiment [2]; 1 nM in experiment [3]; 4.4 nM in experiment [4]; 710 nM in experiment [5].
For the compound `O=C(O)C[C@@H](c1cnc2ccccc2c1)N1CC(CCCCc2ccc3c(n2)NCCC3)C1=O` (stereo partly shown) [Example 106], the IC50 turned out to be 270 nM in experiment [1]; 2 nM in experiment [2]; 5.46 nM in experiment [3]; 2.5 nM in experiment [4]; 220 nM in experiment [5].
As to `O=C(O)C[C@@H](c1ccc2c(c1)CCO2)N1CC(CCCCc2ccc3c(n2)NCCC3)C1=O` (stereo partly shown) [Example 110], the IC50 is 48 nM in experiment [1]; 1.4 nM in experiment [2]; 34 nM in experiment [3]; 7.1 nM in experiment [4]; 210 nM in experiment [5].
